Laboratory results reported in patent publication US10774092B2 (SALK INSTITUTE FOR BIOLOGICAL STUDIES, priority 2014, dated 2020).

Each compound was assayed against ULK1 (Homo sapiens, UniProt O75385) (assay: ULK1 inhibition assay (Table 1)). Conditions: * = tested as a mixture of regioisomers.
Assay type: biochemical

Sequence of ULK1 (O75385 whole entry, looked up): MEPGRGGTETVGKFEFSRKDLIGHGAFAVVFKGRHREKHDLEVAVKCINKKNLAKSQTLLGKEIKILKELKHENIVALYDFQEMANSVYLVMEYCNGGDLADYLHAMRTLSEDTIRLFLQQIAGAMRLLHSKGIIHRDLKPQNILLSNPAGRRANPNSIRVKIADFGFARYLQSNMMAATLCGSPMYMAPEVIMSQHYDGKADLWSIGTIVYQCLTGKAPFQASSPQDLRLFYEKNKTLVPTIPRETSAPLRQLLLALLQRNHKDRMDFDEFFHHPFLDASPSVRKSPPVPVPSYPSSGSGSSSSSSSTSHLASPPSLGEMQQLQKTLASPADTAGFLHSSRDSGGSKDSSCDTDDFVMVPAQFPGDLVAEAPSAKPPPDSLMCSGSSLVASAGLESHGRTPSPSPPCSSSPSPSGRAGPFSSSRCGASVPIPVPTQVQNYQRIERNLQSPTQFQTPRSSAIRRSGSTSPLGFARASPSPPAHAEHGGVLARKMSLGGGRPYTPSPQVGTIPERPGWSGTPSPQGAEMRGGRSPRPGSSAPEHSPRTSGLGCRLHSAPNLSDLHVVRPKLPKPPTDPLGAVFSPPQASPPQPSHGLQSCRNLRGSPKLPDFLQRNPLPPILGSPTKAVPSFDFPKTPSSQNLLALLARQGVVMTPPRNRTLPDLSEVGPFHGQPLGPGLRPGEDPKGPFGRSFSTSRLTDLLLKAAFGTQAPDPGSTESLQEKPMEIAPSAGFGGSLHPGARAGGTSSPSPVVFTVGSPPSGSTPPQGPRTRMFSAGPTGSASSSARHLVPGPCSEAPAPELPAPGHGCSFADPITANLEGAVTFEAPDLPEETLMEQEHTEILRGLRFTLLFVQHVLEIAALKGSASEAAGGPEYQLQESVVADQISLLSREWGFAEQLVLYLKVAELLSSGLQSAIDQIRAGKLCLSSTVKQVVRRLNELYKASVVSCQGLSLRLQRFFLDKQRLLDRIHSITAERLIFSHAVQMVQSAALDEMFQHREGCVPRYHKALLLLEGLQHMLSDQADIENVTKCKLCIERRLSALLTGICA

Structure (SMILES)	IC50 [nM]
C[C@@H]1COCCN1c1nc(Nc2ccc3c(c2)CCC(=O)N3)ncc1C(F)(F)F [Example 247, (R)-6-((4-(3-methylmorpholino)-5-(trifluoromethyl)pyrimidin-2-yl)amino)-3,4-dihydroquinolin-2(1H)-one]	< 200
FC1(F)Oc2ccc(Nc3ncc(C(F)(F)F)c(NC4CC4)n3)cc2O1 [Example 258, N4-cyclopropyl-N2-(2,2-difluorobenzo[d][1,3]dioxol-5-yl)-5-(trifluoromethyl)pyrimidine-2,4-diamine]	> 2000
CCC(=O)c1ccccc1Oc1nc(Nc2cc(OC)c(OC)c(OC)c2)ncc1Br [Example 260, 1-(2-((5-bromo-2-((3,4,5-trimethoxyphenyl)amino)pyrimidin-4-yl)oxy)phenyl)propan-1-one]	< 200
FC(F)(F)c1cnc(NCc2cccc3ccccc23)nc1NC1CC1 [Example 262, N4-cyclopropyl-N2-(naphthalen-1-ylmethyl)-5-(trifluoromethyl)pyrimidine-2,4-diamine]	> 2000
FC(F)(F)c1cnc(Nc2ccc3ncccc3c2)nc1NC1CC1 [Example 264, N4-cyclopropyl-N2-(quinolin-6-yl)-5-(trifluoromethyl) pyrimidine-2,4-diamine]	< 200
O=C1CCc2cc(Nc3ncc(C(F)(F)F)c(Nc4cc(C5CCC5)[nH]n4)n3)ccc2N1 [Example 271, 6-((4-((5-cyclobutyl-1H-pyrazol-3-yl)amino)-5-(trifluoromethyl)pyrimidin-2-yl)amino)-3,4-dihydroquinolin-2(1H)-one]	< 200
FC(F)(F)c1cnc(Nc2cnc3ccccc3c2)nc1NC1CC1 [Example 275, N4-cyclopropyl-N2-(quinolin-3-yl)-5-(trifluoromethyl) pyrimidine-2,4-diamine]	< 200
O=C1CCc2cc(Nc3ncc(C(=O)O)c(NC4CC4)n3)ccc2N1 [Example 286, 4-(cyclopropylamino)-2-((2-oxo-1,2,3,4-tetrahydroquinolin-6-yl)amino)pyrimidine-5-carboxylic Acid]	> 2000
COC(=O)Nc1ccccc1Oc1nc(Nc2cc(OC)c(OC)c(OC)c2)ncc1Br [Example 296, Methyl (2-((5-bromo-2-((3,4,5-trimethoxyphenyl)amino)pyrimidin-4-yl)oxy)phenyl)carbamate]	< 200
FC(F)(F)c1cnc(Nc2ccc3nc[nH]c3c2)nc1Nc1cc(C2CCC2)[nH]n1 [Example 297, N2-(1H-benzo[d]imidazol-6-yl)-N4-(5-cyclobutyl-1H-pyrazol-3-yl)-5-(trifluoromethyl)pyrimidine-2,4-diamine]	< 200
COc1cc(Nc2ncc(Br)c(Oc3ccccc3C(F)(F)F)n2)cc(OC)c1OC [Example 299, 5-bromo-4-(2-(trifluoromethyl)phenoxy)-N-(3,4,5-trimethoxyphenyl)pyrimidin-2-amine]	< 200
O=C1CCCc2cc(Nc3ncc(C(F)(F)F)c(NC4CC4)n3)ccc21 [Example 301, 6-((4-(cyclopropylamino)-5-(trifluoromethyl)pyrimidin-2-yl)amino)-3,4-dihydronaphthalen-1(2H)-one]	< 200
COc1cc(Nc2ncc(Br)c(Nc3ccccc3CO)n2)cc(OC)c1OC [Example 303, (2-((5-bromo-2-((3,4,5-trimethoxyphenyl)amino)pyrimidin-4-yl)amino)phenyl)methanol]	< 200
Nc1ccc(Nc2ncc(C(F)(F)F)c(NC3CC3)n2)cc1 [Example 304a, N2-(4-aminophenyl)-N4-cyclopropyl-5-(trifluoromethyl)pyrimidine-2,4-diamine]	< 200
CC(C)(C)OC(=O)NCCCNc1nc(Nc2ccc3c(c2)CCC(=O)N3)ncc1C(F)(F)F [Example 310, Tert-butyl (3-((2-((2-oxo-1,2,3,4-tetrahydroquinolin-6-yl)amino)-5-(trifluoromethyl)pyrimidin-4-yl)amino)propyl)carbamate]	< 200
O=C(C1CC1)N(C(=O)C1CC1)c1ccc(Nc2ncc(C(F)(F)F)c(NC3CC3)n2)cc1 [Example 311, N-(cyclopropanecarbonyl)-N-(4-((4-(cyclopropylamino)-5-(trifluoromethyl)pyrimidin-2-yl)amino)phenyl)cyclopropanecarboxamide]	< 200
O=C(Nc1ccc(Nc2ncc(C(F)(F)F)c(NC3CC3)n2)cc1)C1CC1 [Example 312, N-(4-((4-(cyclopropylamino)-5-(trifluoromethyl)pyrimidin-2-yl)amino)phenyl)cyclopropanecarboxamide]	< 200

These compounds were tested on PC3 prostate-cancer cell line stably expressing GFP-LC3 (assay: GFP-LC3 puncta high-throughput microscopy). Conditions: control siRNA cells, 1 μM mTOR catalytic inhibitor for 4 hr.
Assay type: cell-based, human
Protocol: At 48 hr after RNAi transfection, the cells were treated with 1 μM of the catalytic mTOR inhibitors AZD8055 or INK128 for 4 hr and assessed for the presence of GFP-LC3 puncta. The average number of GFPLC3 puncta and SD for each siRNA and drug treatment are shown. SRC, c-Src; c-Src kinase, CSK.
(§1) To test the ability of compound 14 to block autophagy and cell survival, initial studies were performed in A549 lung cancer cells, which are highly sensitive to mTOR inhibition. […] Next, we genetically assessed the requirement for ULK1 versus other kinases inhibited by compound 14 to induce autophagy after pharmacological mTOR inhibition. A robust high-throughput microscopy method for quantifying GFP-LC3 puncta was established using a PC3 prostate-cancer cell line stably expressing a GFP-LC3 construct. Using this assay, we performed a focused RNAi analysis of the top 20 kinases identified in the DiscovRx screen as best binding to compound 14. […] Strikingly, of the 18 kinases tested, only one kinase siRNA, ULK1, nearly fully abolished the LC3 puncta induced by the mTOR inhibitors (FIG. 9D).

Structure (SMILES)	induction in GFP-LC3 puncta formation [fold]
COc1ccc(-c2ccc3c(N4CCOC[C@@H]4C)nc(N4CCOC[C@@H]4C)nc3n2)cc1CO [AZD8055, (5-(2,4-bis((S)-3-methylmorpholino)pyrido[2,3-d]pyrimidin-7-yl)-2-methoxyphenyl)methanol, reference compound]	2
CC(C)n1nc(-c2ccc3oc(N)nc3c2)c2c(N)ncnc21 [INK128, 3-(2-amino-5-benzoxazolyl)-1-(1-methylethyl)-1H-pyrazolo[3,4-d]pyrimidin-4-amine]	2

These compounds were tested on A549 lung cancer cells (assay: Cyto-ID autophagy dye detection of autophagic vacuoles). Conditions: 5-μM 6965 with AZD8055.
Assay type: cell-based
Protocol: FIG. 9E is an immunoflourescence imaging of A549 cells treated in the presence or absence of 5 μM compound 14 for 2 hr followed by 4 μM of the mTOR catalytic inhibitor AZD8055 for 24 hr. Autophagic vacuoles were detected using the Cyto-ID autophagy detection kit and are visualized in green, while cell nuclei were counterstained by DAPI and are visualized in blue.
as §1

Structure (SMILES)	effect on AZD8055-induced autophagy (Cyto-ID dye accumulation)
CNC(=O)c1ccccc1Nc1nc(Nc2cc(OC)c(OC)c(OC)c2)ncc1Br [compound 14, 2-(5-bromo-2-(3,4,5-trimethoxyphenylamino)pyrimidin-4-ylamino)-N-methylbenzamide]	strongly suppressed

Same assay, conditions: AZD8055 alone

Structure (SMILES)	autophagy induction (Cyto-ID dye accumulation)
COc1ccc(-c2ccc3c(N4CCOC[C@@H]4C)nc(N4CCOC[C@@H]4C)nc3n2)cc1CO [AZD8055, (5-(2,4-bis((S)-3-methylmorpholino)pyrido[2,3-d]pyrimidin-7-yl)-2-methoxyphenyl)methanol, reference compound]	induced robust autophagy

What follows are compounds tested on endogenous ULK1 activity (assay: mobility shift of endogenous Beclin1 and Atg13 (endogenous ULK1 activity) in MEFs). Conditions: WT MEFs, 10 μM co-treatment, 1 hr.
Assay type: cell-based, mouse
Protocol: FIG. 7D: WT or Ulk1/Ulk2 double knockout mouse embryonic fibroblasts (MEFs) were treated with fresh media (Dulbecco's modified Eagle medium [DMEM] containing 10% FBS) containing 1-μM INK128, 1-μM AZD8055, or DMSO or with starvation media (EBSS) in the presence or absence of 10 μM compound 14. Cellular lysates were isolated after 1 hr of treatment and immunoblotted with the indicated antibodies. Asterisk denotes non-specific band.
We next examined whether compound 14 inhibits endogenous ULK1 activity. To activate endogenous ULK1, we treated MEFs with either amino acid starvation media (Earle's balanced salt solution [EBSS]) or the mTOR ATP-competitive inhibitors INK128 or AZD8055. In WT MEFs, we observed a mobility shift in endogenous Beclin1 and Atg13 in response to EBSS starvation media or the mTOR catalytic inhibitors, which was abolished in Ulk1/2-deficient MEFs (FIG. 7D). […] In certain embodiments, the mobility shifts observed in endogenous Beclin1 and Atg13 induced by mTOR inhibitors and starvation media reflect phosphorylation of endogenous Beclin1/Atg13 by endogenous ULK1/2 as they only occur in WT but not Ulk1/2-deficient MEFs.

Structure (SMILES)	EBSS and mTOR-inhibitor induced mobility shift in Beclin1 and Atg13
CNC(=O)c1ccccc1Nc1nc(Nc2cc(OC)c(OC)c(OC)c2)ncc1Br [compound 14, 2-(5-bromo-2-(3,4,5-trimethoxyphenylamino)pyrimidin-4-ylamino)-N-methylbenzamide]	inhibited
